Measured values from US20090203708A1, “NOVEL SUBSTITUTED-1-H-QUINAZOLINE-2,4-DIONE DERIVATIVES, PREPARATION METHOD THEREOF AND PHARMACEUTICAL COMPOSITION CONTAINING THE SAME” (Korea Research Institute of Chemical Technology, priority 2006, published 2009).

What was measured:
[1] = molecular target: human serotonin 5-HT6 receptor (Homo sapiens, UniProt P50406); test: [3H]LSD binding assay for cloned 5-HT6 receptors
human serotonin 5-HT6 receptor, sequence (P50406 whole entry): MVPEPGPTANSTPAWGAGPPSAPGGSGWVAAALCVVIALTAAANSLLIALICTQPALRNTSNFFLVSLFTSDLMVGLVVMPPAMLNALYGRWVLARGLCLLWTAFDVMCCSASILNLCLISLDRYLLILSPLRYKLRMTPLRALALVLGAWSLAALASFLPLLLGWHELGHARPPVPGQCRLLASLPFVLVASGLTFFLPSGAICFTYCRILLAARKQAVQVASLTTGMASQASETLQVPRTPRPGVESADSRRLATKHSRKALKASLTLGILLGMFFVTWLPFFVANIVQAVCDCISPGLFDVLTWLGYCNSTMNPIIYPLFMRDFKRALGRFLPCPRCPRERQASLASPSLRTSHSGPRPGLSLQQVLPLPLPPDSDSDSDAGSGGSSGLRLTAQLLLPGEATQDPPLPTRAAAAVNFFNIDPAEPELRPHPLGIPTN

| SMILES | IC50 [1] [nM] | melting point [°C] |
| --- | --- | --- |
| CN1CCN(c2cc(Cl)cc3c2c(=O)n(Cc2ccc(Br)cc2)c(=O)n3Cc2ccccc2)CC1 [Example 16, 1-benzyl-3-(4-bromo-benzyl)-7-chloro-5-(4-methyl-piperazin-1-yl)-1H-quinazoline-2,4-dione] | 3.3 | 93 to 98 |
| O=c1c2c(N3CCNCC3)cc(Cl)cc2n(Cc2ccccc2)c(=O)n1Cc1ccccc1O [Example 65, 1-benzyl-7-chloro-3-(2-hydroxy-benzyl)-5-piperazin-1-yl-1H-quinazoline-2,4-dione] | 5.9 | 113 to 130 |
| CN1CCN(c2cc(Cl)cc3c2c(=O)n(Cc2ccc(C#N)cc2)c(=O)n3Cc2ccccc2)CC1 [Example 37, 4-[1-benzyl-7-chloro-5-(4-methyl-piperazin-1-yl)-2,4-dioxo-1,4-dihydro-2H-quinazoline-3-ylmethyl]-benzonitrile] | 27.1 | 99 to 105 |
| O=c1c2c(N3CCNCC3)cc(Cl)cc2n(Cc2ccccc2)c(=O)n1Cc1ccccc1[N+](=O)[O-] [Example 66, 1-benzyl-7-chloro-3-(2-nitro-benzyl)-5-piperazin-1-yl-1H-quinazoline-2,4-dione] | 5.7 | 129 to 134 |
| COc1ccc(-n2c(=O)c3c(N4CCN(C)CC4)cc(Cl)cc3n(Cc3ccccc3)c2=O)cc1 [Example 9, 1-benzyl-7-chloro-3-(4-methoxy-phenyl)-5-(4-methyl-piperazin-1-yl)-1H-quinazoline-2,4-dione] | 12.4 | 155 to 158 |
| CN1CCN(c2cc(Cl)cc3c2c(=O)n(Cc2ccccc2)c(=O)n3C)CC1 [Example 50, 3-benzyl-7-chloro-1-methyl-5-(4-methyl-piperazin-1-yl)-1H-quinazoline-2,4-dione] | > 1000 | 132 to 136 |
| CN1CCN(c2cc(Cl)cc3c2c(=O)n(Cc2ccccc2N)c(=O)n3Cc2ccccc2)CC1 [Example 34, 3-(2-amino-benzyl)-1-benzyl-7-chloro-5-(4-methyl-piperazin-1-yl)-1H-quinazoline-2,4-dione] | 2.5 |  |
| CN1CCN(c2cc(Cl)cc3c2c(=O)n(Cc2ccccc2O)c(=O)n3Cc2ccccc2)CC1 [Example 28, 1-benzyl-7-chloro-3-(2-hydroxy-benzyl)-5-(4-methyl-piperazin-1-yl)-1H-quinazoline-2,4-dione] | 2.5 | 130 to 132 |
| CN1CCN(c2cc(Cl)cc3c2c(=O)n(Cc2cccc(O)c2)c(=O)n3Cc2ccccc2)CC1 [Example 29, 1-benzyl-7-chloro-3-(3-hydroxy-benzyl)-5-(4-methyl-piperazin-1-yl)-1H-quinazoline-2,4-dione] | 15 | 234 to 236 |
| Cc1cccc(Cn2c(=O)c3c(N4CCN(C)CC4)cc(Cl)cc3n(Cc3ccccc3)c2=O)c1 [Example 23, 1-benzyl-7-chloro-3-(3-methyl-benzyl)-5-(4-methyl-piperazin-1-yl)-1H-quinazoline-2,4-dione] | 2.6 | 171 to 175 |
| COC(=O)c1ccc(Cn2c(=O)c3c(N4CCN(C)CC4)cc(Cl)cc3n(Cc3ccccc3)c2=O)cc1 [Example 38, 4-[1-benzyl-7-chloro-5-(4-methyl-piperazin-1-yl)-2,4-dioxo-1,4-dihydro-2H-quinazoline-3-ylmethyl]-benzoic acid methyl ester] | 2.7 | 90 to 94 |
| COc1ccccc1Cn1c(=O)c2c(N3CCNCC3)cc(Cl)cc2n(Cc2ccccc2)c1=O [Example 63, 1-benzyl-7-chloro-3-(2-methoxy-benzyl)-5-piperazin-1-yl-1H-quinazoline-2,4-dione] | 2.3 | 122 to 125 |
| CCCn1c(=O)n(Cc2ccccc2)c(=O)c2c(N3CCN(C)CC3)cc(Cl)cc21 [Example 52, 3-benzyl-7-chloro-5-(4-methyl-piperazin-1-yl)-1-propyl-1H-quinazoline-2,4-dione] | 169 |  |
| Nc1ccccc1Cn1c(=O)c2c(N3CCNCC3)cc(Cl)cc2n(Cc2ccccc2)c1=O [Example 67, 3-(2-amino-benzyl)-1-benzyl-7-chloro-5-piperazin-1-yl-1H-quinazoline-2,4-dione] | 3.6 |  |
| CN1CCN(c2cc(Cl)cc3c2c(=O)n(Cc2ccc(O)cc2)c(=O)n3Cc2ccccc2)CC1 [Example 30, 1-benzyl-7-chloro-3-(4-hydroxy-benzyl)-5-(4-methyl-piperazin-1-yl)-1H-quinazoline-2,4-dione] | 27 | 138 to 140 |
| CN1CCN(c2cc(Cl)cc3[nH]c(=O)n(Cc4ccccc4)c(=O)c23)CC1 [Example 49, 3-benzyl-7-chloro-5-(4-methyl-piperazin-1-yl)-1H-quinazoline-2,4-dione] | > 1000 | 208 to 210 |
| CCn1c(=O)c2c(N3CCN(C)CC3)cc(Cl)cc2n(Cc2ccccc2)c1=O [Example 2, 1-benzyl-7-chloro-3-ethyl-5-(4-methyl-piperazin-1-yl)-1H-quinazoline-2,4-dione] | 3.1 | 155 to 159 |

| SMILES | IC50 [1] [nM] | melting point [°C] |
| --- | --- | --- |
| CN1CCN(c2cc(Cl)cc3c2c(=O)n(Cc2ccncc2)c(=O)n3Cc2ccccc2)CC1 [Example 48, 1-benzyl-7-chloro-5-(4-methyl-piperazin-1-yl)-3-pyridin-4-ylmethyl-1H-quinazoline-2,4-dione] | 33.3 | 94 to 100 |
| COc1cccc(Cn2c(=O)c3c(N4CCN(C)CC4)cc(Cl)cc3n(Cc3ccccc3)c2=O)c1 [Example 26, 1-benzyl-7-chloro-3-(3-methoxy-benzyl)-5-(4-methyl-piperazin-1yl)-1H-quinazoline-2,4-dione] | 7.9 | 98 to 110 |
| CN1CCN(c2cc(Cl)cc3c2c(=O)n(Cc2ccc(I)cc2)c(=O)n3Cc2ccccc2)CC1 [Example 21, 1-benzyl-7-chloro-3-(4-iodo-benzyl)-5-(4-methyl-piperazin-1-yl)-1H-quinazoline-2,4-dione] | 4.7 |  |
| CN1CCN(c2cc(Cl)cc3c2c(=O)n(CC2CCCCC2)c(=O)n3Cc2ccccc2)CC1 [Example 6, 1-benzyl-7-chloro-3-cyclohexylmethyl-5-(4-methyl-piperazin-1-yl)-1H-quinazoline-2,4-dione] | 4.2 | 163 to 169 |
| CC(C)CCn1c(=O)c2c(N3CCN(C)CC3)cc(Cl)cc2n(Cc2ccccc2)c1=O [Example 5, 1-benzyl-7-chloro-3-(3-methyl-butyl)-5-(4-methyl-piperazin-1-yl)-1H-quinazoline-2,4-dione] | 3.6 | 62 to 68 |
| CCn1c(=O)n(Cc2ccccc2)c(=O)c2c(N3CCN(C)CC3)cc(Cl)cc21 [Example 51, 3-benzyl-7-chloro-1-ethyl-5-(4-methyl-piperazin-1-yl)-1H-quinazoline-2,4-dione] | 729 | 68 to 75 |
| CN1CCN(c2cc(Cl)cc3c2c(=O)n(Cc2cccc4ccccc24)c(=O)n3Cc2ccccc2)CC1 [Example 46, 1-benzyl-7-chloro-5-(4-methyl-piperazin-1-yl)-3-naphthalen-1-ylmethyl-1H-quinazoline-2,4-dione] | 3.2 | 75 to 89 |
| COc1ccc(Cn2c(=O)c3c(N4CCN(C)CC4)cc(Cl)cc3n(Cc3ccccc3)c2=O)cc1 [Example 27, 1-benzyl-7-chloro-3-(4-methoxy-benzyl)-5-(4-methyl-piperazin-1-yl)-1H-quinazoline-2,4-dione] | 10.2 | 81 to 89 |
| CN1CCN(c2cc(Cl)cc3c2c(=O)n(Cc2cccc(N)c2)c(=O)n3Cc2ccccc2)CC1 [Example 35, 3-(3-amino-benzyl)-1-benzyl-7-chloro-5-(4-methyl-piperazin-1-yl)-1H-quinazoline-2,4-dione] | 40.2 | 260 to 265 |
| CC(C)Cc1cccc(CCCn2c(=O)c3c(N4CCN(C)CC4)cc(Cl)cc3n(Cc3ccccc3)c2=O)c1 [Example 45, 1-benzyl-7-chloro-3-[3-(3-isobutyl-phenyl)-propyl]-5-(4-methyl-piperazin-1-yl)-1H-quinazoline-2,4-dione] | 10.5 | 56 to 62 |
| CN1CCN(c2cc(Cl)cc3c2c(=O)n(Cc2ccc(N)cc2)c(=O)n3Cc2ccccc2)CC1 [Example 36, 3-(4-amino-benzyl)-1-benzyl-7-chloro-5-(4-methyl-piperazin-1-yl)-1H-quinazoline-2,4-dione] | 22.1 | 93 to 96 |
| CCCCn1c(=O)c2c(N3CCN(C)CC3)cc(Cl)cc2n(Cc2ccccc2)c1=O [Example 4, 1-benzyl-3-butyl-7-chloro-5-(4-methyl-piperazin-1-yl)-1H-quinazoline-2,4-dione] | 2.8 |  |
| O=c1c2c(N3CCNCC3)cc(Cl)cc2n(Cc2ccccc2)c(=O)n1Cc1ccccc1 [Example 57, 1,3-dibenzyl-7-chloro-5-piperazin-1-yl-1H-quinazoline-2,4-dione] | 3.4 | 115 to 123 |
| CCCCn1c(=O)n(Cc2ccccc2)c(=O)c2c(N3CCN(C)CC3)cc(Cl)cc21 [Example 53, 3-benzyl-1-butyl-7-chloro-5-(4-methyl-piperazin-1-yl)-1H-quinazoline-2,4-dione] | 30.2 |  |
| CN1CCN(c2cc(Cl)cc3c2c(=O)n(Cc2ccc([N+](=O)[O-])cc2)c(=O)n3Cc2ccccc2)CC1 [Example 33, 1-benzyl-7-chloro-5-(4-methyl-piperazin-1-yl)-3-(4-nitro-benzyl)-1H-quinazoline-2,4-dione] | 15.4 | 109 to 113 |
| CN1CCN(c2cc(Cl)cc3c2c(=O)n(-c2ccccc2)c(=O)n3Cc2ccccc2)CC1 [Example 8, 1-benzyl-7-chloro-5-(4-methyl-piperazin-1-yl)-3-phenyl-1H-quinazoline-2,4-dione] | 167 | 111 to 119 |
| Cc1ccc(Cn2c(=O)c3c(N4CCN(C)CC4)cc(Cl)cc3n(Cc3ccccc3)c2=O)cc1C [Example 39, 1-benzyl-7-chloro-3-(3,4-dimethyl-benzyl)-5-(4-methyl-piperazin-1-yl)-1H-quinazoline-2,4-dione] | 5.1 | 96 to 99 |
